Data published in ChEMBL document CHEMBL1201862, “PubChem BioAssay data set” (2004).
Active and inactive are the calls of the source.

How the values were obtained:
Cytochrome P450 2C19 = Cytochrome P450 2C19 (Homo sapiens, UniProt P33261); assay: Cytochrome panel assay with activity outcomes. Panel member name: p450-cyp2c19 Compounds with AC50 equal or less than 10 uM are considered active; assay type: functional; conditions: read-out: AC50
Cytochrome P450 3A4 = Cytochrome P450 3A4 (Homo sapiens, UniProt P08684);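 also: CYP3A4 tested as one member of a cytochrome P450 panel screen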
Chain of Cytochrome P450 3A4 (P08684 whole entry): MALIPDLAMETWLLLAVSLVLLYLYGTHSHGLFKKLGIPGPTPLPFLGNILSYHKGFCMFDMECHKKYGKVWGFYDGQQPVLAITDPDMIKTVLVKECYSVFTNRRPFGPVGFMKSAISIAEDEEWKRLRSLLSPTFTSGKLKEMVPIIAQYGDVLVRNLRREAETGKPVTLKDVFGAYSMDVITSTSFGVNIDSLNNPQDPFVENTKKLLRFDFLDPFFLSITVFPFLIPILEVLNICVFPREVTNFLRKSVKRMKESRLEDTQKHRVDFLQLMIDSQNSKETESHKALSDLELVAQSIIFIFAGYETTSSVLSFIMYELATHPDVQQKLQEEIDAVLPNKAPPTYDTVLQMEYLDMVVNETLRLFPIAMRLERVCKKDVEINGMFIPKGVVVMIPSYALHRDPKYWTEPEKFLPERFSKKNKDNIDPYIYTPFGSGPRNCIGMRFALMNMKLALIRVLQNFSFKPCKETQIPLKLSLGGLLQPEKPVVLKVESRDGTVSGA

Cytochrome P450 2C9 = Cytochrome P450 2C9 (Homo sapiens, UniProt P11712)
Chain of Cytochrome P450 2C9 (P11712 whole entry): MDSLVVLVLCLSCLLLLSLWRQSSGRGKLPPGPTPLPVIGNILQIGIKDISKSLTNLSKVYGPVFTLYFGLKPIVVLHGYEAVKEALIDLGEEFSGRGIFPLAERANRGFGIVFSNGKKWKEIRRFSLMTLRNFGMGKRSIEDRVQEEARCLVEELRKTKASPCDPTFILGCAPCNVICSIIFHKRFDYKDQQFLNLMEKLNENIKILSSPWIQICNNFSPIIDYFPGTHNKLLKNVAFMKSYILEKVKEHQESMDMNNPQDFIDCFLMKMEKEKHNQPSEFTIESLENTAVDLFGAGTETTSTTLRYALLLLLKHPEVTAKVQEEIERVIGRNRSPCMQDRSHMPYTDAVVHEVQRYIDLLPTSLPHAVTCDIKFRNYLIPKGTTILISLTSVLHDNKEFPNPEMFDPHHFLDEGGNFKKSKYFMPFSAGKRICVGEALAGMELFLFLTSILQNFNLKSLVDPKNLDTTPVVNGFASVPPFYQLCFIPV

[1] = molecular target: T1, Corticotropin-releasing factor receptor 2/Corticotropin-releasing factor-binding protein (Homo sapiens, UniProt P24387+Q13324); assay: Dose Response confirmation of uHTS hits for small molecule antagonists of the CRF-binding protein and CRF-R2 receptor complex.; assay type: functional; conditions: read-out: IC50_Mean
T1 sequence (Q13324 whole entry): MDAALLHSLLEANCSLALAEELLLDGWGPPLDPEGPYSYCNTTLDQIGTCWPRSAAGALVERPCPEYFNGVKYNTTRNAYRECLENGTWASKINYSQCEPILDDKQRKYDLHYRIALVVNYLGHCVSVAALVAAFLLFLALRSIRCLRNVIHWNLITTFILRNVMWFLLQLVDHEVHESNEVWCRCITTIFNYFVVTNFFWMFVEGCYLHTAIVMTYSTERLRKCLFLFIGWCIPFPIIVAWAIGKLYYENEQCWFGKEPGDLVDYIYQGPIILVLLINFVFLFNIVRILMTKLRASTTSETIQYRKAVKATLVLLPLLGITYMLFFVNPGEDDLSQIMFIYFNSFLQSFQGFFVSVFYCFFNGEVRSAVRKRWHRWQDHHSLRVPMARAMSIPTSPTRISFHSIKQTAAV
T1 sequence (P24387 whole entry): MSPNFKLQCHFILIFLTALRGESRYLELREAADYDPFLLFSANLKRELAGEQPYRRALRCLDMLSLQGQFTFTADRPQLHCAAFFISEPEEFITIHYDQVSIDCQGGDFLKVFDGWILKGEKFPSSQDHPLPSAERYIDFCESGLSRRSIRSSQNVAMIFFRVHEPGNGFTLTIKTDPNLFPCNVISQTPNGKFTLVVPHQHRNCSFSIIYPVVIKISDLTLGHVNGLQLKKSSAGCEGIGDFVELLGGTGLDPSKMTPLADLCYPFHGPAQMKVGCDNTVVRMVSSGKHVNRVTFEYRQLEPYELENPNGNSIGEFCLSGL

[2] = molecular target: T1, Corticotropin-releasing factor receptor 2/Corticotropin-releasing factor-binding protein; assay: activators of CRF receptor 2 with binding protein – uHTS hits, confirmation (AID 602473); assay type: functional; conditions: read-out: EC50_Mean
Escherichia coli = assay: microbe, parasite or virus in culture
Cytochrome P450 2D6 = Cytochrome P450 2D6 (Homo sapiens, UniProt P10635);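 also: CYP2D6 member of a cytochrome P450 panel assay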
Chain of Cytochrome P450 2D6 (P10635 whole entry): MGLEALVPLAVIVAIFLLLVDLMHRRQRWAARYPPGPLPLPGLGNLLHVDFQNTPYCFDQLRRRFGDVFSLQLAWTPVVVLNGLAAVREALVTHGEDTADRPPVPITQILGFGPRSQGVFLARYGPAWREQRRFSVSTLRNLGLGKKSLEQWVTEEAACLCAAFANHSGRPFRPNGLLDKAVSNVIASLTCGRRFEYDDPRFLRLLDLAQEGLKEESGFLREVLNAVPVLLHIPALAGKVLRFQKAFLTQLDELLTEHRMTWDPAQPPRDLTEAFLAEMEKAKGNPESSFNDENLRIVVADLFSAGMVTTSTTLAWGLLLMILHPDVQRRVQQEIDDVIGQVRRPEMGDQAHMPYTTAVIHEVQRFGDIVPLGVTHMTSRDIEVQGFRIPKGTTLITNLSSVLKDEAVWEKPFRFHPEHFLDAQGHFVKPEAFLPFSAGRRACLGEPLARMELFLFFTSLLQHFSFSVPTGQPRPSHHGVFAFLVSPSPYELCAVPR

[3] = viability of HCT116 lacking mutant beta-catenin – cell-based, human colon tumor, dose response (AID 1045); assay type: functional;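 also: HCT116 colon tumor cells with beta catenin knocked out; cells exposed to compound for 60 hours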
[4] = viability of PTEN-deleted HCT116 cells – cell-based, HCT116 PTEN knockout, dose response (AID 1047); assay type: functional;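 also: HCT116 colon tumor cells with PTEN knocked out; cells exposed to compound for 60 hours before readout; potency for loss of cell viability measured by luminescence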
[5] = molecular target: T2, Replicative DNA helicase DnaB (Mycobacterium tuberculosis, UniProt P9WMR3); assay: DnaB intein splicing inhibitors, dose response, biochemical, cell-free fluorescence (AID 449749); assay type: functional
T2 sequence (P9WMR3 whole entry): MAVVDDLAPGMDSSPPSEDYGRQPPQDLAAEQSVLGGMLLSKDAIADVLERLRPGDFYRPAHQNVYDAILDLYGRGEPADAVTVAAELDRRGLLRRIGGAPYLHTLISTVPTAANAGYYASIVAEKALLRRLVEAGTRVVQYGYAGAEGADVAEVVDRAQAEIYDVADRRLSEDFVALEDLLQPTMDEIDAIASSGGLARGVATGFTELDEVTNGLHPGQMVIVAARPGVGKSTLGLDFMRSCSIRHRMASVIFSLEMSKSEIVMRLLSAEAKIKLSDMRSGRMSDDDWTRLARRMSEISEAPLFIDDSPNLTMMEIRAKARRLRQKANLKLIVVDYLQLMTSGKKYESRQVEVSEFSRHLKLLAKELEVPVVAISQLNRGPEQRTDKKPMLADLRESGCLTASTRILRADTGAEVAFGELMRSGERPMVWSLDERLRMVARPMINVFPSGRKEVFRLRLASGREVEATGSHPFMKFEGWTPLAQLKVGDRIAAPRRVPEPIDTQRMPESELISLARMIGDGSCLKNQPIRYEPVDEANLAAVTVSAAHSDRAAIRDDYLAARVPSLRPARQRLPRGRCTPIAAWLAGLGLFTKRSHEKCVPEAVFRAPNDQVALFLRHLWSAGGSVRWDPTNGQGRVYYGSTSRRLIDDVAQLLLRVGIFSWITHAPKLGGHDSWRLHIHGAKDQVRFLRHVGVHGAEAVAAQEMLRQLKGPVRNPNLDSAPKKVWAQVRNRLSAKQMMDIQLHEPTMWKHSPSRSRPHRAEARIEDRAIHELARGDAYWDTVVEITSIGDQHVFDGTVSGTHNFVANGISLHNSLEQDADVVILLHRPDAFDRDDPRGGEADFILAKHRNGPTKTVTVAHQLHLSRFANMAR

Protein RecA = molecular target: T3, Protein RecA (Mycobacterium tuberculosis, UniProt P9WHJ3); assay: Fluorescence Cell-Free Homogeneous Dose Retest to Identify Inhibitors of RecA-Intein Splicing Activity. [Related pubchem assays (depositor defined):AID2097, AID2223, AID489010, AID492950]; assay type: functional
T3 sequence (P9WHJ3 whole entry): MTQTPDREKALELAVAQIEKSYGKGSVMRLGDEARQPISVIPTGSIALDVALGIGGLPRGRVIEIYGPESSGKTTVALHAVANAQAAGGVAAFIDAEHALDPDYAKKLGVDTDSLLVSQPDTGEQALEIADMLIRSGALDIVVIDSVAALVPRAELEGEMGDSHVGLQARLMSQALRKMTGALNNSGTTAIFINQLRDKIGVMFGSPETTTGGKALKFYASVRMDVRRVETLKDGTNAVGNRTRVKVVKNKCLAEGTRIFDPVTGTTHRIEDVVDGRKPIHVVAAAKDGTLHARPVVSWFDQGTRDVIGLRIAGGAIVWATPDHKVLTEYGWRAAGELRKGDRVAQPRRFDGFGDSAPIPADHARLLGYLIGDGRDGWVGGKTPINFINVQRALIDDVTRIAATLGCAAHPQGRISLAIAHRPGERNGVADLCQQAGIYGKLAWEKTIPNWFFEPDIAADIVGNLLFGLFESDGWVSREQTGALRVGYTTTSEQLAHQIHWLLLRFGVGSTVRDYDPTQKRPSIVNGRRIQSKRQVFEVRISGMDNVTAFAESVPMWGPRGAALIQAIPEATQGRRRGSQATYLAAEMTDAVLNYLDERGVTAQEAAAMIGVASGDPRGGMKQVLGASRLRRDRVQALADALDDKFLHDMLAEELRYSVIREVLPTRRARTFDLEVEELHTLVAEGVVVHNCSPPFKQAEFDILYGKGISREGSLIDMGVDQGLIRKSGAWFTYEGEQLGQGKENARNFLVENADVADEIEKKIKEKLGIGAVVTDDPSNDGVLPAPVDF

[6] = molecular target: Glucose-6-phosphate 1-dehydrogenase (Homo sapiens, UniProt P11413); assay: inhibition of Homo sapiens G6PD, dose series – biochemical, fluorescence, selectivity assay for P. falciparum G6PD inhibitor project, dose response (AID 504792); assay type: functional
Chain of Glucose-6-phosphate 1-dehydrogenase (P11413 whole entry): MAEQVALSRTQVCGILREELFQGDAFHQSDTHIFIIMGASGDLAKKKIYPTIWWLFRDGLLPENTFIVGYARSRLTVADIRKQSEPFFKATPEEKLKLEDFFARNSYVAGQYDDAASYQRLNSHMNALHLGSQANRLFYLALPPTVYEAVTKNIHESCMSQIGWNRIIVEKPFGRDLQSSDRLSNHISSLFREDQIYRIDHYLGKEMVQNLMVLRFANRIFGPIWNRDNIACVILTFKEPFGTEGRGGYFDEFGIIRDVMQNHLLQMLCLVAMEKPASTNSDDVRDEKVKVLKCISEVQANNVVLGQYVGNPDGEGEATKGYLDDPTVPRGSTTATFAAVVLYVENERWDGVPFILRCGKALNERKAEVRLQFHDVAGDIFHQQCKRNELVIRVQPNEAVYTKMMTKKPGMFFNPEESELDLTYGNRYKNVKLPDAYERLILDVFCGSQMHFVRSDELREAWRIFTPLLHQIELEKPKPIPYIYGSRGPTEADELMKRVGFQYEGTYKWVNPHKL

Chain of Cytochrome P450 2C19 (P33261 whole entry): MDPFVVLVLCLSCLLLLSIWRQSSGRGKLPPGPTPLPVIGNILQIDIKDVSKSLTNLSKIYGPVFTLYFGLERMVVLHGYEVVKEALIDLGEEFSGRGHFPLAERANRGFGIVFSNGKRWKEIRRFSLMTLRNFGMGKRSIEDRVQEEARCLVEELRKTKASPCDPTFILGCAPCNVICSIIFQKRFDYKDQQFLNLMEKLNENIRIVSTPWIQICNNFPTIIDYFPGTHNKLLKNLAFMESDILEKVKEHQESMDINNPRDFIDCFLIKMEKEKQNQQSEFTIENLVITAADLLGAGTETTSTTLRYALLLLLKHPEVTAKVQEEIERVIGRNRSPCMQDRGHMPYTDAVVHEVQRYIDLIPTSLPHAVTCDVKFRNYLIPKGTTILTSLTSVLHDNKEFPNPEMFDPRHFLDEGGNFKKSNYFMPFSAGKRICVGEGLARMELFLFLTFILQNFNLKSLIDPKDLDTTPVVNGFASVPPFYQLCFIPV

COc1ccc(NC(=O)C(=O)NNC(=O)c2cccs2)c(OC)c1
AC50 (Cytochrome P450 2C19): 39.8 µM (inconclusive)
AC50 (Cytochrome P450 3A4): 17.8 µM (inconclusive)
AC50 (Cytochrome P450 2C9): inconclusive
IC50 [1]: > 47.1 µM (inactive)
EC50 [2]: > 53 µM (inactive)

CC(NC(=O)CSc1nc2sc3c(c2c(=O)n1-c1ccccc1)CCCC3)c1ccccc1 (stereo not given)
AC50 (Escherichia coli): 107 µM (active)

Oc1nc(N2CCCCC2)nc2c1CCCC2
AC50 (Escherichia coli): 24.9 µM (active)

COc1ccc(NC(=O)CCSc2cc(C)c3ccccc3n2)cc1
AC50 (Cytochrome P450 2C9): inconclusive
AC50 (Cytochrome P450 2D6): 31.6 µM (inconclusive)

CNc1nc(-c2cccnc2)nc2ccccc12
AC50 (Cytochrome P450 2C19): 39.8 µM (inconclusive)
AC50 (Cytochrome P450 2C9): inconclusive
AC50 (Cytochrome P450 2D6): 39.8 µM (inconclusive)

O=C(Nc1ccc(Cl)c(C(F)(F)F)c1)NC1CC2CCCC(C1)N2C1CC1 (stereo not given)
AC50 (Escherichia coli): 25.7 µM (active)

Cc1ccc(-c2nc3ccccc3s2)cc1NC(=S)NC(=O)c1cccc2ccccc12
AC50 (Escherichia coli): 36.4 µM (active)
EC50 [3]: 12.1 µM (active)
EC50 [4]: 14.1 µM (active)

O=C(c1cccnc1)C1CCCN(Cc2nc(Cc3ccccc3)no2)C1 (stereo not given)
AC50 (Escherichia coli): 42 µM (active)

CCNc1ccccc1CP(=O)(c1ccccc1)c1ccccc1O (stereo not given)
AC50 [5]: 10.4 µM (active)
EC50 (Protein RecA): 1.25 µM (active)
IC50 [6]: 42.6 µM (inactive)
